Test results taken from patent publication US11059860B2, “Biocidal peptide and preparation based thereon” (“VERTA RESEARCH-PRODUCTION COMPANY” LTD, priority 2017, dated 2021).
Where a SMILES comes first, the peptide text is derived from it. [ ]: non-standard residue; d: D form. Phe(2-Me) = Cc1ccccc1C[C@H](N)C(=O)O

Experiments:
[1] = test system: red blood cells; assay type: cell-based
Protocol: The mixture was then diluted with a phosphate (PBS) buffer (0.015 M Na2HPO4, 0.15 M NaCl, pH 7.4). Samples of peptides in specific concentrations in PBS were placed in wells of a 96-well plate, and a red cell suspension in PBS was added to the samples. The red cell concentration was 1%. PBS was used as the negative control (no hemolysis). The positive control (100% hemolysis) −0.1% triton X-100 in PBS. The plates were incubated for three hours at 37° C. under 5% CO2 and centrifuged. The supernatant was transferred to a clean plate. The intensity of the hemoglobin release from the destroyed red blood cells was determined on a tablet spectrophotometer “Victor-2” (Finland) at λ-450 nm. […] All measurements were made thrice.

[2] = test system: spleen cells; assay: Spontaneous proliferation of spleen cells (3H-thymidin capture); assay type: cell-based, murine; conditions: for spontaneous proliferation of spleen cells (captured 3H-thymidin): 72 hrs
[3] = test system: spleen cells stimulated with LPS; assay type: cell-based, murine
[4] = test system: thymus cells; assay: Spontaneous proliferation of thymus cells (3H-thymidin capture); assay type: cell-based, murine; conditions: 72 hrs
[5] = test system: RAW 264.7 macrophage line cells; assay: NO production by RAW 264.7 macrophage line cells stimulated with LPS (Greiss test); assay type: cell-based
Protocol: Upon completion of incubation, the culture medium in all wells of the plate was replaced with 0.25 ml of fresh medium. […] Polymixin B (Calbiochem) (PMB) in the same concentrations was used as the positive control of the inhibition of the LPS effect. The prepared mixture was then added at 0.25 ml increments to the wells of the culture plate at least in two parallel experiments. A mixture of LPS and the culture medium was added to the control wells. The cells were cultivated for 24 hrs. in a CO2 incubator. NO production was measured based on the total nitrite level in the culture medium in the Greiss test by using a commercial reagent (Sigma) according to the manufacturer's specifications.

[6] = test system: type 2 herpes simplex virus, strain G (ATCC VR-734, USA); assay: Protective activity in lethal herpes infection caused in mice by vaginal infection; assay type: in vivo
[7] = stimulated with 0.04 ml of LPS, peptide 0.4 μg/ml
[8] = stimulated with 0.04 ml of LPS, peptide 2 μg/ml
[9] = stimulated with 0.04 ml of LPS, peptide 10 μg/ml
[10] = stimulated with 0.2 ml of LPS, peptide 0.4 μg/ml
[11] = stimulated with 0.2 ml of LPS, peptide 2 μg/ml
[12] = stimulated with 0.2 ml of LPS, peptide 10 μg/ml
[13] = mice, n = 15, applied once a day on days 1-5 post infection, followed 18 days

| Compound | dose at which hemolysis was not induced [1] | spontaneous proliferation of spleen cells (captured 3H-thymidin) ([2]; peptide 0.08 μg/ml) | spontaneous proliferation of spleen cells (captured 3H-thymidin) ([2]; peptide 0.4 μg/ml) | spontaneous proliferation of spleen cells (captured 3H-thymidin) ([2]; peptide 2 μg/ml) | spontaneous proliferation of spleen cells (captured 3H-thymidin) ([2]; peptide 10 μg/ml) | spontaneous proliferation of thymus cells (captured 3H-thymidin) ([4]; peptide 0.08 μg/ml) | spontaneous proliferation of thymus cells (captured 3H-thymidin) ([4]; peptide 0.4 μg/ml) | spontaneous proliferation of thymus cells (captured 3H-thymidin) ([4]; peptide 2 μg/ml) | spontaneous proliferation of thymus cells (captured 3H-thymidin) ([4]; peptide 10 μg/ml) | NO production inhibition [5, 7] | NO production inhibition [5, 8] | NO production inhibition [5, 9] | NO production inhibition [5, 10] | NO production inhibition [5, 11] | NO production inhibition [5, 12] | other results |
| --- | --- | --- | --- | --- | --- | --- | --- | --- | --- | --- | --- | --- | --- | --- | --- | --- |
| CC[C@H](C)[C@H](N)C(=O)N[C@@H](CC(C)C)C(=O)N1CCC[C@H]1C(=O)N[C@@H](Cc1ccccc1C)C(=O)N[C@@H](CCCCN)C(=O)N[C@@H](Cc1ccccc1C)C(=O)N1CCC[C@H]1C(=O)N[C@@H](Cc1ccccc1C)C(=O)N[C@@H](Cc1ccccc1C)C(=O)N1CCC[C@H]1C(=O)N[C@@H](Cc1ccccc1C)C(=O)N[C@@H](CCCNC(=N)N)C(=O)N[C@@H](CCCNC(=N)N)C(N)=O [Peptide 11, H-Ile-Leu-Pro-(2-Me)Phe-Lys-(2-Me)Phe-Pro-(2-Me)Phe-(2-Me)Phe-Pro-(2-Me) Phe-Arg-Arg-NH2] (H-ILP[Phe(2-Me)]K[Phe(2-Me)]P[Phe(2-Me)][Phe(2-Me)]P[Phe(2-Me)]RR-NH2) | exceeding 200 μg/ml |  |  |  |  |  |  |  |  |  |  |  |  |  |  |  |
| CC[C@H](C)[C@H](N)C(=O)N[C@@H](CC(C)C)C(=O)N1CCC[C@H]1C(=O)N[C@H](Cc1ccccc1)C(=O)N[C@@H](CCCCN)C(=O)N[C@H](Cc1ccccc1)C(=O)N1CCC[C@H]1C(=O)N[C@H](Cc1ccccc1)C(=O)N[C@H](Cc1ccccc1)C(=O)N1CCC[C@H]1C(=O)N[C@H](Cc1ccccc1)C(=O)N[C@@H](CCCNC(=N)N)C(=O)N[C@@H](CCCNC(=N)N)C(N)=O [Peptide 6, H-Ile-Leu-Pro-D-Phe-Lys-D-Phe-Pro-D-Phe-D-Phe-Pro-D-Phe-Arg-Arg-NH2] (H-ILP[dF]K[dF]P[dF][dF]P[dF]RR-NH2) | exceeding 200 μg/ml | 1530 ± 510 imp/min | 1615 ± 248 imp/min | 1854 ± 236 imp/min | 3279 ± 177 imp/min | 306 ± 103 imp/min | 246 ± 48 imp/min | 298 ± 63 imp/min | 736 ± 161 imp/min | 0% | 1% | 8% | 1% | 10% | 7% | effect on spontaneous proliferation of splenocytes (in words) ([2]; 2-10 μg/ml dose range): statistically significant enhancement of the spontaneous proliferation of splenocytes; effect on splenocyte proliferation stimulated with lipopolysaccharide (in words) [3]: inhibited the LPS effect; effect on NO production stimulated by LPS (in words) ([5]; 10-0.4 μg/ml doses): inhibited the NO production |
| Polymixin B [PMB] |  | 1488 ± 497 imp/min | 1548 ± 140 imp/min | 2051 ± 167 imp/min | 2051 ± 456 imp/min | 255 ± 68 imp/min | 197 ± 10 imp/min | 197 ± 12 imp/min | 201 ± 66 imp/min | 44% | 85% | 94% | 11% | 62% | 98% |  |
| Nc1nc2c(ncn2COCCO)c(=O)[nH]1 [Acyclovir] |  |  |  |  |  |  |  |  |  |  |  |  |  |  |  | Number of Dead animals [6, 13]: 4; Number of Survived animals [6, 13]: 11; Mortality ([6]; mice, n = 15, followed 18 days): 26.7%; Increase in ALS ([6]; versus virus control group): 2.5 |
